Assay results published in patent US10982100B2, “Slippery liquid-infused porous surfaces and biological applications thereof” (President and Fellows of Harvard College, priority 2011, dated 2021).

How the values were obtained:
Format in all cases: physicochemical
[1] = Stable lubricating film for solid-Liquid A-Liquid B combinations, theory versus experiment; set-up: key: “Y” indicates that Liquid B forms a stable lubricating film, and is not displaced by Object A; “N” indicates that Liquid B is displaced by Object A; conditions: label = Liquid A
Text: When the relationship holds, the lubricating liquid will stay in intimate contact with the porous solid without being displaced by Liquid A. Note that the equilibrium contact angles were estimated from the average values of the advancing and receding contact angles of Liquid A and the lubricating liquid on the flat solid surface. Satisfying the relationship can help promote the operation stability of the slippery surface where the liquid layer is substantially completely covered by the test liquid (i.e., two-phase environments that involve a single fluid interface between the test liquid and the liquid layer) and where the liquid layer contacts a droplet of the test fluid as well as air (i.e., three-phase environments that involve three fluid interfaces of (i) test liquid-liquid layer, (ii) test liquid-air, and (iii) liquid layer-air). […] Notice that γA and γB are equivalent to γAX and γBX defined in the text, and medium X is air specifically in this context. Variable γAB represents the interfacial tension for Object A-Liquid B interface. […] M., Ind. Eng. Chem. 56, 40-42, 1964; Israelachvili, J. N. Intermolecular and Surface Forces, Academic Press, 2011). The dispersion force contribution of water surface tension […]., Ind. Eng. Chem. 56, 40-42, 1964). S. Epoxy represents silanized epoxy resin substrate.

[2] = Contact angles of various liquids on flat solids; set-up: unit not given here
Experimental: The behavior of liquids on surfaces is described by an equilibrium contact angle. An equilibrium contact angle, θ, is the angle at which a liquid/vapor interface meets a solid surface, which is determined by the interactions across the three interfaces, e.g., solid/liquid/vapor. […] The upper limit is known as the apparent advancing contact angle (θA), whereas the lower limit is referred as the apparent receding contact angle (θR). The difference between these values is known as contact angle hysteresis (i.e., Δθ=θA−θR, where θA≥θ≥θR), which characterizes the liquid repellency of a surface. Conventionally, equilibrium contact angle can be roughly estimated by the average of the advancing and receding angles (i.e., θ=(θA+θR)/2), or by a static contact angle, θstatic (i.e., θ=θstatic).
In practice, contact angle measurement can be performed by a number of different well-established techniques, such as the sessile drop method and the Wilhelmy method. In particular, the sessile drop method is among the most popular technique for contact angle measurement. In this technique, a liquid droplet is deposited on a targeted solid surface, where the liquid profile is captured by an optical system of a goniometer and geometrically fitted to obtain the contact angle. The contact angle measured from a static liquid droplet deposited on the surface is known as the static contact angle, θstatic. Using the same system, advancing contact angle, θA, can be measured while the volume of the drop is increasing until the wetting line starts to advance. Receding contact angle, θR, can be measured by decreasing the volume of the drop and determining the contact angle just before the wetting line recedes. Alternatively, the advancing and the receding angles of the liquid drop can also be determined by gradually tilting the solid surface until the liquid drop starts to move.

[3] = Surface tension of polar and non-polar liquids
Text: Fluid-fluid interfacial tension can be measured by many well-established techniques, such as the Wilhelmy plate method, the Du Noüy ring method, and the pendant drop method (e.g., see Drelich et al., in Encyclopedia of Surface and Colloid Science, pp. 3152-3166, Marcel Dekker Inc, 2002, the contents of which is incorporated by reference herein in its entirety). Among all of the techniques, the pendant drop method is among the most popular and versatile technique, which can be easily extended to a two-liquid system. The pendant drop method measures the shape of a fluid-fluid interface and quantifies the shape distortion due to the competition between the fluid-fluid interfacial tension and gravity. In practice, a drop of denser fluid (e.g., Object A) is suspended by a syringe needle in medium X (i.e., air/water/the lubricating fluid). Owing to the influence of gravity, the denser liquid droplet will be deformed as the liquid volume increases. The shape profile of the liquid droplet is captured by an optical system and subsequently analyzed by a computer software when the liquid volume is increased to the maximum possible size (i.e., before the liquid drop is detached from the syringe needle). The interfacial tension of the fluid-fluid interface, γ, can then be deduced from the formula, γ=ΔρgD^2/H, where Δρ is the density difference between the two immiscible fluids, g is gravity, D is equatorial diameter of the liquid droplet, and H is drop shape dependent parameters which is a function of the shape profile of the droplet.

[4] = Solid Epoxy, Liquid B FC-70, R 1
[5] = Solid Epoxy, Liquid B FC-70, R 2
[6] = Solid S. Epoxy (silanized epoxy resin), Liquid B FC-70, R 2
[7] = Solid Silicon, Liquid B H2O, R 1
[8] = flat solid S. (silanized epoxy)

| SMILES | Stable Film? Exp. [1, 4] | Stable Film? Theory [1, 4] | Stable Film? Exp. [1, 5] | Stable Film? Theory [1, 5] | Stable Film? Exp. [1, 6] | Stable Film? Theory [1, 6] | Stable Film? Exp. [1, 7] | Stable Film? Theory [1, 7] | Measured contact angle θadv ([2]; flat solid Epoxy) | Measured contact angle θrec ([2]; flat solid Epoxy) | Measured contact angle θstatic ([2]; flat solid Epoxy) | Measured contact angle θadv [2, 8] | Measured contact angle θrec [2, 8] | Measured contact angle θstatic [2, 8] | Measured contact angle θadv ([2]; flat solid Silicon) | Measured contact angle θrec ([2]; flat solid Silicon) | Measured contact angle θstatic ([2]; flat solid Silicon) | Surface Tension [3] | also measured |
| --- | --- | --- | --- | --- | --- | --- | --- | --- | --- | --- | --- | --- | --- | --- | --- | --- | --- | --- | --- |
| CCCCCCCCCC [Decane] | N | N | N | N | Y | Y | N | N | 15.0 ± 1.6 | 13.7 ± 0.9 | 14.2 ± 0.7 | 66.0 ± 4.1 | 38.5 ± 0.7 | 60.0 ± 2.8 | 7.9 ± 1.0 | ~0.0 | <5.0 | 23.6 ± 0.1 mN/m |  |
| CCCCCCCCCCCC [Dodecane] |  |  |  |  |  |  |  |  |  |  |  |  |  |  |  |  |  | 25.3 ± 0.1 mN/m |  |
| OCCO [Ethylene Glycol] |  |  |  |  |  |  |  |  |  |  |  |  |  |  |  |  |  | 48.1 ± 0.3 mN/m |  |
| OCC(O)CO [Glycerol] |  |  |  |  |  |  |  |  |  |  |  |  |  |  |  |  |  | 60.3 ± 1.1 mN/m |  |
| CCCCCCC [Heptane] |  |  |  |  |  |  |  |  |  |  |  |  |  |  |  |  |  | 19.9 ± 0.3 mN/m |  |
| CCCCCCCCCCCCCCCC [Hexadecane] | N | Y/N | N | N | Y | Y | N | N | 32.8 ± 1.4 | 25.7 ± 0.9 | 30.6 ± 0.4 | 76.3 ± 1.4 | 50.0 ± 3.9 | 70.5 ± 2.0 | 17.3 ± 1.6 | ~0.0 | 5.6 ± 1.1 | 27.2 ± 0.2 mN/m |  |
| CCCCCC [Hexane] |  |  | N | N | Y | Y | N | Y/N | ~0.0 | ~0.0 | ~0.0 | 52.5 ± 0.3 | 22.8 ± 1.7 | 40.1 ± 4.2 | <5.0 | ~0.0 | <5.0 | 18.6 ± 0.5 mN/m |  |
| CCCCCCCCC [Nonane] |  |  |  |  |  |  |  |  |  |  |  |  |  |  |  |  |  | 22.6 ± 0.2 mN/m |  |
| CCCCCCCC [Octane] |  |  | N | N | Y | Y | N | N | 9.7 ± 1.2 | 6.1 ± 0.2 | 7.9 ± 0.7 | 57.7 ± 2.5 | 23.8 ± 4.0 | 50.7 ± 3.0 | <5.0 | ~0.0 | <5.0 | 21.4 ± 0.2 mN/m |  |
| CCCCC [Pentane] |  |  | N | N | Y | Y | N | Y/N | ~0.0 | ~0.0 | ~0.0 | 36.4 ± 2.5 | 17.0 ± 1.8 | 30.8 ± 3.1 | <5.0 | ~0.0 | <5.0 | 17.2 ± 0.5 mN/m |  |
| CCCCCCCCCCCCC [Tridecane] | N | Y/N | N | N | Y | Y |  |  | 28.3 ± 1.1 | 25.4 ± 0.7 | 26.9 ± 1.7 | 72.8 ± 0.2 | 48.1 ± 3.1 | 63.5 ± 2.8 |  |  |  | 25.9 ± 0.1 mN/m |  |
| CCCCCCCCCCC [Undecane] |  |  |  |  |  |  |  |  |  |  |  |  |  |  |  |  |  | 24.6 ± 0.2 mN/m |  |
| O [Water] | N | Y/N | Y | Y/N | Y | Y |  |  | 100.3 ± 3.1 | 67.0 ± 4.5 | 92.6 ± 1.8 | 118.9 ± 1.7 | 90.8 ± 0.9 | 113.1 ± 2.8 | 14.4 ± 2.7 | ~0.0 | 13.1 ± 1.7 | 72.4 ± 0.1 mN/m | Stable Film? Exp. ([1]; Solid PDMS, Liquid B PDMS, R 1): Y; Stable Film? Theory ([1]; Solid PDMS, Liquid B PDMS, R 1): Y; Stable Film? Exp. ([1]; Solid PP, Liquid B PDMS, R 1): Y; Stable Film? Theory ([1]; Solid PP, Liquid B PDMS, R 1): Y; Stable Film? Exp. ([1]; Solid PP, Liquid B PDMS, R 2): Y; Stable Film? Theory ([1]; Solid PP, Liquid B PDMS, R 2): Y; Stable Film? Exp. ([1]; Solid PTFE, Liquid B PDMS, R 2): Y; Stable Film? Theory ([1]; Solid PTFE, Liquid B PDMS, R 2): Y |
